In BindingDB's records for doi:10.1016/s0960-894x(98)00730-6 (University At Stony Brook, 1999):
Where a SMILES comes first, the peptide text is derived from it. [ ]: non-standard residue; d: D form. The star is where a group is joined. Biotinyl(3aR,4R,6aS) = O=C1N[C@@H]2[C@@H](CS[C@@H]2CCCCC(=O)*)N1; Phe(4-guanidino) = N=C(N)Nc1ccc(C[C@H](N)C(=O)O)cc1; Bpa = N[C@@H](Cc1ccc(C(=O)c2ccccc2)cc1)C(=O)O; X3 = O=C1N[C@@H]2CSC(CCCCC(=O)*)[C@@H]2N1; Phe(4-F) = N[C@@H](Cc1ccc(F)cc1)C(=O)O; X4 = O=C(c1ccccc1)c1ccc(CCC(=O)*)cc1; Orn = NCCC[C@H](N)C(=O)O; X1 = O=C(C=Cc1ccccc1)*; Propionyl = CCC(=O)*

assay: Human Thrombin receptor 1 (PAR-1) antagonistic ability to inhibit SFLLRN-NH2 (2.7 uM)-induced platelet aggregation

Row | SMILES | IC50
1 | N=C(N)NCCC[C@H](NC(=O)[C@H](Cc1ccc(C(=O)c2ccccc2)cc1)NC(=O)[C@H](Cc1ccc(N=C(N)N)cc1)NC(=O)[C@H](Cc1ccc(F)cc1)NC(=O)C=Cc1ccccc1)C(=O)N[C@@H](CCCNC(=O)CCCC[C@H]1SC[C@H]2NC(=O)N[C@H]21)C(=O)O [(2S)-5-{5-[(3aR,4R,6aS)-2-oxo-hexahydro-1H-thieno[3,4-d]imidazolidin-4-yl]pentanamido}-2-[(2S)-2-[(2S)-3-(4-benzoylphenyl)-2-[(2S)-3-(4-carbamimidamidophenyl)-2-[(2S)-3-(4-fluorophenyl)-2-[(2E)-3-phenylprop-2-enamido]propanamido]propanamido]propanamido]-5-carbamimidamidopentanamido]pentanoic acid] (X1-[Phe(4-F)][Phe(4-guanidino)][Bpa]R[Orn](Biotinyl(3aR,4R,6aS))-OH) | 3.4 µM
2 | CCC(=O)NCCC[C@H](NC(=O)[C@H](Cc1ccc(C(=O)c2ccccc2)cc1)NC(=O)[C@H](CC(C)C)NC(=O)[C@H](Cc1ccc(N=C(N)N)cc1)NC(=O)[C@H](Cc1ccc(F)cc1)NC(=O)C=Cc1ccccc1)C(=O)O [(S)-2-((S)-3-(4-Benzoyl-phenyl)-2-{(S)-2-[(S)-2-{(S)-3-(4-fluoro-phenyl)-2-[(E)-(3-phenyl-acryloyl)amino]-propionylamino}-3-(4-guanidino-phenyl)-propionylamino]-4-methyl-pentanoylamino}-propionylamino)-5-propionylamino-pentanoic acid] (X1-[Phe(4-F)][Phe(4-guanidino)]L[Bpa][Orn](Propionyl)-OH) | 9 µM
3 | CC(C)C[C@H](NC(=O)[C@H](Cc1ccc(N=C(N)N)cc1)NC(=O)[C@H](Cc1ccc(F)cc1)NC(=O)C=Cc1ccccc1)C(=O)N[C@@H](CCCNC(=N)N)C(=O)O [(S)-2-{(S)-2-[(S)-2-{(S)-3-(4-Fluoro-phenyl)-2-[(E)-(3-phenyl-acryloyl)amino]-propionylamino}-3-(4-guanidino-phenyl)-propionylamino]-4-methyl-pentanoylamino}-5-guanidino-pentanoic acid] (X1-[Phe(4-F)][Phe(4-guanidino)]LR-OH) | 0.3 µM
4 | N=C(N)NCCC[C@H](NC(=O)[C@H](Cc1ccc(C(=O)c2ccccc2)cc1)NC(=O)[C@H](Cc1ccc(N=C(N)N)cc1)NC(=O)[C@H](Cc1ccc(F)cc1)NC(=O)C=Cc1ccccc1)C(=O)O [(S)-2-{(S)-3-(4-Benzoyl-phenyl)-2-[(S)-2-{(S)-3-(4-fluoro-phenyl)-2-[(E)-(3-phenyl-acryloyl)amino]-propionylamino}-3-(4-guanidino-phenyl)-propionylamino]-propionylamino}-5-guanidino-pentanoic acid] (X1-[Phe(4-F)][Phe(4-guanidino)][Bpa]R-OH) | 6 µM

Further molecules by falling IC50, results first:

Row | IC50 | SMILES
5 | 13 µM | CC(C)C[C@H](NC(=O)[C@H](Cc1ccc(N=C(N)N)cc1)NC(=O)[C@H](Cc1ccc(F)cc1)NC(=O)C=Cc1ccccc1)C(=O)N[C@@H](Cc1ccc(C(=O)c2ccccc2)cc1)C(=O)O [(S)-3-(4-Benzoyl-phenyl)-2-{(S)-2-[(S)-2-{(S)-3-(4-fluoro-phenyl)-2-[(E)-(3-phenyl-acryloyl)amino]-propionylamino}-3-(4-guanidino-phenyl)-propionylamino]-4-methyl-pentanoylamino}-propionic acid] (X1-[Phe(4-F)][Phe(4-guanidino)]L[Bpa]-OH)
6 | 9.7 µM | CC(C)C[C@H](NC(=O)[C@H](Cc1ccc(N=C(N)N)cc1)NC(=O)[C@H](Cc1ccc(F)cc1)NC(=O)C=Cc1ccccc1)C(=O)N[C@@H](Cc1ccc(C(=O)c2ccccc2)cc1)C(=O)N[C@@H](CCCNC(=O)CCCCC1SC[C@H]2NC(=O)N[C@@H]12)C(=O)O (stereo partly drawn) [(2S)-5-{5-[(3aR,6aS)-2-oxo-hexahydro-1H-thieno[3,4-d]imidazolidin-4-yl]pentanamido}-2-[(2S)-3-(4-benzoylphenyl)-2-[(2S)-2-[(2S)-3-(4-carbamimidamidophenyl)-2-[(2S)-3-(4-fluorophenyl)-2-[(2E)-3-phenylprop-2-enamido]propanamido]propanamido]-4-methylpentanamido]propanamido]pentanoic acid] (X1-[Phe(4-F)][Phe(4-guanidino)]L[Bpa][Orn](X3)-OH)
7 | 3.1 µM | CCC(=O)NCCC[C@H](NC(=O)[C@H](CCCNC(=N)N)NC(=O)[C@H](Cc1ccc(C(=O)c2ccccc2)cc1)NC(=O)[C@H](Cc1ccc(N=C(N)N)cc1)NC(=O)[C@H](Cc1ccc(F)cc1)NC(=O)C=Cc1ccccc1)C(=O)O [(S)-2-((S)-2-{(S)-3-(4-Benzoyl-phenyl)-2-[(S)-2-{(S)-3-(4-fluoro-phenyl)-2-[(E)-(3-phenyl-acryloyl)amino]-propionylamino}-3-(4-guanidino-phenyl)-propionylamino]-propionylamino}-5-guanidino-pentanoylamino)-5-propionylamino-pentanoic acid] (X1-[Phe(4-F)][Phe(4-guanidino)][Bpa]R[Orn](Propionyl)-OH)
8 | 3.1 µM | CC(C)C[C@H](NC(=O)[C@H](Cc1ccc(N=C(N)N)cc1)NC(=O)[C@H](Cc1ccc(F)cc1)NC(=O)CCc1ccc(C(=O)c2ccccc2)cc1)C(=O)N[C@@H](CCCNC(=N)N)C(=O)O [(S)-2-{(S)-2-[(S)-2-[(S)-2-[3-(4-Benzoyl-phenyl)-propionylamino]-3-(4-fluoro-phenyl)-propionylamino]-3-(4-guanidino-phenyl)-propionylamino]-4-methyl-pentanoylamino}-5-guanidino-pentanoic acid] (X4-[Phe(4-F)][Phe(4-guanidino)]LR-OH)
